Experimental data from publication PMC10095932 (Molecules, 2023).
Where a SMILES comes first, the peptide text is derived from it. Bridges are numbered along the chain shown (N, C = ends).

Target: T1, rat NPR-A (Rattus norvegicus, UniProt P18910)
T1 construct: endogenous in cells; host or cells: rat PC12 cells
T1 sequence (P18910 29-1057): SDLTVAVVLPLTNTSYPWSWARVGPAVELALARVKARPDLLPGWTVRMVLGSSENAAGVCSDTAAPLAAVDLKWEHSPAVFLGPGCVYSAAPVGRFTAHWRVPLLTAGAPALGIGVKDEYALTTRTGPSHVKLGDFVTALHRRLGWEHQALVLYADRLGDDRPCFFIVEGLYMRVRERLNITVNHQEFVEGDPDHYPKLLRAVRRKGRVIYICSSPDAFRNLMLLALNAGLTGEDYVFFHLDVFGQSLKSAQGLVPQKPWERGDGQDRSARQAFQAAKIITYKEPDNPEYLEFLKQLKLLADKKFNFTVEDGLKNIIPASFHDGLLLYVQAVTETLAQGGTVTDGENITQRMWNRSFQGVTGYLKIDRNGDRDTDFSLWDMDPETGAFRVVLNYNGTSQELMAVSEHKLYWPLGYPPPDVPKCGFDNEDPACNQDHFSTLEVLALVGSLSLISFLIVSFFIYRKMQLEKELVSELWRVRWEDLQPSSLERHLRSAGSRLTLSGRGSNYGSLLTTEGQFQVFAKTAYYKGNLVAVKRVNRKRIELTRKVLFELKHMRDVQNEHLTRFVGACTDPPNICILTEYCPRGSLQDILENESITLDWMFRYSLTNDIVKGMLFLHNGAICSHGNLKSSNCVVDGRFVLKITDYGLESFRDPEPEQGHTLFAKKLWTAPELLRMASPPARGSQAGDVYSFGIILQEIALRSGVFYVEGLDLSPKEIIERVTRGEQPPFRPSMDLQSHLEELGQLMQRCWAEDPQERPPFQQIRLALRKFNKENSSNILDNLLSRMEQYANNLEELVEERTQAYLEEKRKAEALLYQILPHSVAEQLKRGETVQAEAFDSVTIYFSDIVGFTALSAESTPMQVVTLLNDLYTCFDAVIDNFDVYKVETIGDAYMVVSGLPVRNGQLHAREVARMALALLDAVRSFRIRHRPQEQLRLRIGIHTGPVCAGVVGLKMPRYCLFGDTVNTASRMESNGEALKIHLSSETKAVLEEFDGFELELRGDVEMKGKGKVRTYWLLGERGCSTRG
Experiment: cGMP ALPHAscreen, cGMP production in PC12 cells
Type: cell-based
Protocol: NP activity can be determined by the effectiveness of the peptide to elicit cGMP production through NPR-A. The cGMP ALPHAscreen evaluates the ability of peptides to stimulate cGMP production in cells through a non-radioactive, homogenous, proximity assay which encompasses […]. […] In order to evaluate the potency of TNPa-e at rNPR-A, TNPa-e were evaluated using the cGMP ALPHAscreen in rat PC12 cells.
Cells were cultured at 5% CO2 and 37 °C. HEK 293 cells were cultured in high glucose DMEM (Gibco, Carlsbad, CA, USA) supplemented with 10% FBS, and 1% penicillin/streptomycin. HEK 293 cells were seeded in media lacking penicillin/streptomycin 24 to 48 h pre-transfection. PC12 cells were cultured in high glucose DMEM (Gibco) supplemented with 10% FBS and 1% penicillin/streptomycin.
The cGMP ALPHAscreen was performed using the ALPHAscreen Protein A detection kit and the biotinylated cGMP supplement (Perkin Elmer, Waltham, MA, USA) with rabbit anti-cGMP polyclonal antibody (Biovision, Mountain View, CA, USA). Cells were detached from the flask and the resulting pellet was resuspended in stimulation buffer (HBSS supplemented with 0.1% w/v BSA and 1 mM IBMX at 37 °C). Cells were added to a white 384-well Optiplate (Perkin Elmer, Waltham, USA) to 30,000 cells per well for HEK 293 cells and 10,000 cells per well for PC12 cells. Cells were incubated with different concentrations of test peptides (concentration range of 1 × 10^−5 to 1 × 10^−11 M in stimulation buffer) at 37 °C for 30 min. Cells were lysed with lysis buffer (1 M HEPES, 0.3% Tween-20, 1% BSA in H2O, pH 7.4). Then 5 μL acceptor-bead mix was added to each well under subdued lighting conditions, followed by 5 μL of donor-bead mix. Plates were incubated for ~12 h, slowly shaking at room temperature. After incubation, the ALPHAscreen signal was measured using an EnVision plate reader (Perkin Elmer). The standard curve consisted of cGMP in a concentration range of 1 × 10^−6 to 1 × 10^−12 M. All data points were acquired in triplicate and were analyzed using GraphPad Prism 5.0 software (GraphPad Software, Inc., San Diego, CA, USA).

Compound: CC[C@H](C)[C@H](NC(=O)[C@H](CCCCN)NC(=O)[C@H](CO)NC(=O)[C@H](CC(=O)O)NC(=O)[C@@H](N)CO)C(=O)NCC(=O)N[C@@H](CC(N)=O)C(=O)NCC(=O)N[C@H]1CSSC[C@@H](C(=O)N[C@@H](CC(N)=O)C(=O)N[C@@H](CCCNC(=N)N)C(=O)N[C@H](C(=O)N[C@@H](CCSC)C(=O)N[C@@H](CCC(N)=O)C(=O)N[C@@H](CC(N)=O)C(=O)N2CCC[C@H]2C(=O)N2CCC[C@H]2C(=O)N[C@@H](CCCCN)C(=O)N[C@@H](CCCCN)C(=O)N[C@@H](Cc2ccccc2)C(=O)N[C@@H](CO)C(=O)NCC(=O)N[C@@H](CCC(=O)O)C(=O)O)[C@@H](C)CC)NC(=O)CNC(=O)[C@H](CC(C)C)NC(=O)CNC(=O)[C@H](CO)NC(=O)[C@H](C(C)C)NC(=O)[C@H](CO)NC(=O)CNC(=O)[C@H]([C@@H](C)CC)NC(=O)[C@H](CCCNC(=N)N)NC(=O)[C@H](CC(=O)O)NC(=O)[C@H](CC(C)C)NC(=O)[C@@H]2CCCN2C(=O)[C@H](Cc2ccccc2)NC(=O)CNC(=O)[C@H](Cc2ccccc2)NC1=O [TNPc] (H-SDSKIGNGCFGFPLDRIGSVSGLGCNRIMQNPPKKFSGE-OH; disulfide 9-25)
- EC50 (PC12 cells, 30 min at 37 °C, cGMP ALPHAscreen, three to five separate experiments in triplicate, read-out: rNPR-A EC50 (95% CI), potency to stimulate cGMP production): 100 nM
- selectivity / difference in potency for rNPR-A over hNPR-A (rNPR-A (PC12) versus hNPR-A (HEK 293) cGMP potency): 100 fold
